Reference: patent publication EP1095663B1, “Potentiated and stabilised disinfectant having bactericidal and virucidal activity” (Sogeval S.A., priority 1999, dated 2001)
Like-named read-outs stand apart in the source and are kept apart here.

Experiments:
[1] = test system: virus de la maladie de Talfan; experiment: Virucidal activity of mixtures, drop of viral titre, Example 1; format: cell-based; conditions: 30 min, 20°C, eau dure à 30°f + matières organiques
Procedure: Pour déterminer l'activité virucide de l'association susmentionnée, on a préparé différents mélanges monoperoxyphtalate de magnésium/cumène sulfonate de sodium/acide malique et on a analysé l'efficacité de ces différents mélanges sur le virus de la maladie de Talfan, ce en appliquant les conditions expérimentales qui correspondent aux exigences en matière d'homologation d'un désinfectant à usage agricole [temps de contact 30 min. - température 20°C - conditions de saleté : eau dure à 30°f + matières organiques (albumine 1 % + extrait de levure 1 %)].

[2] = 20°C; cited from earlier work
[3] = test de AMES; cited from earlier work
rat [4] = conditions: Toxicité aiguë par voie orale; cited from earlier work
rat [5] = conditions: Toxicité aiguë par inhalation; cited from earlier work
lapin = conditions: Toxicité aiguë par voie dermique; cited from earlier work
[6] = test system: Enteroccocus hirae (CIP 58 55)
Procedure: (§1) On a analysé l'activité bactéricide des produits testés sur les deux souches bactériennes Pseudomonas aeruginosa (CIP A 22) et Enteroccocus hirae (CIP 58 55).
(§2) On a ainsi déterminé les concentrations minimales bactéricides (CMB), d'une part, de monoperoxyphtalate de magnésium (MMPP) et de mélange Ml seul et, d'autre part, de leur association, ce dans des solutions d'eau distillée, d'eau dure à 30°f et dans les conditions de saleté prévues par les normes correspondant aux exigences en matière d'homologation d'un désinfectant à usage agricole (matières organiques : albumine 1 % + extrait de levures 1 %).

[7] = test system: Pseudomonas aeruginosa (CIP A 22)
Procedure: as §1, §2

[8] = test system: Enterococcus hirae (CIP 58 55); conditions: temps de contact 5 min, 20°C
Procedure: (§3) Conformément à l'invention, on a vérifié l'activité bactéricide du monoperoxyphtalate de magnésium vis-à-vis de souches bactériennes fréquentes dans les élevages, à savoir les souches suivantes : Pseudomonas aeruginosa, Escherichia coli, Staphylococcus aureus et Enteroccocus hirae, ce en appliquant les conditions expérimentales qui répondent aux exigences d'homologation d'un désinfectant à usage agricole qui sont définies par la norme NF-T 72-301 (temps de contact 5 min. température 20°C, conditions de saleté : eau dure à 30°f, matière organique = albumine 1 % + extraits de levures 1 %).
(§4) Il est à noter que conformément aux exigences en matière d'homologation (norme NF-T 72-171) une substance est considérée comme active à une concentration d'emploi donnée lorsqu'elle permet de réduire le titre bactérien d'au moins 10^5, soit 5 Log.

[9] = test system: Staphylococcus aureus (CIP 53 154); conditions: temps de contact 5 min, 20°C
Procedure: as §3, §4

[10] = test system: Escherichia coli (CIP 53 154); conditions: temps de contact 5 min, 20°C, conditions de saleté
Procedure: as §3, §4

[11] = test system: Pseudomonas aeruginosa (CIP A22); conditions: temps de contact 5 min, 20°C, conditions de saleté
Procedure: as §3, §4

rats de laboratoire = conditions: Toxicité moyenne; cited from earlier work
[12] = test system: virus de la maladie de Talfan
Excerpt: Selon les normes en vigueur, une substance est considérée comme virucide lorsqu'elle permet de réduire le titre viral d'au moins 10^3, c'est-à-dire de 3 Log.
Ce test a été effectué sur le virus de la maladie de Talfan (enterovirus non enveloppé, à ARN).

[13] = test system: Pseudomonas aeruginosa, Escherichia coli, Staphylococcus aureus et Enteroccocus hirae; experiment: Bactericidal activity on all four tested strains (summary); format: cell-based; conditions: conditions requises (NF-T 72-301)
Procedure: as §3, §4

truite arc en ciel = conditions: cited from earlier work
[14] = conditions de saleté (eau dure à 30°f, albumine 1 % + extraits de levures 1 %)

For `O=C(O)CC(O)C(=O)O` (stereo not drawn) [Ac. Malique, acide malique], the “Chute du titre viral (exprimé en Log)” value ([1]; Ac. Malique 3000 ppm) was 0,33 Log.
For `CC(C)c1ccc(S(=O)(=O)[O-])cc1.[Na+]` [Cumène sulfonate de sodium, cumène sulfonate de sodium], the “Chute du titre viral (exprimé en Log)” value ([1]; Cumène sulfonate de sodium 1500 ppm) was 0 Log.
In the case of `O=C(O)c1ccccc1C(=O)OO` [monoperoxyphtalate de magnésium], the “soluble en milieu aqueux” value [2] is listed as 80 g/L, the “Propriétés Mutagenes” value [3] is listed as “Non mutagène selon le test de AMES (norme n° ...)” and the “LD50 (voie orale, rat)” value (rat [4]) is listed as 2300 MG/kg de poids vif. For the same compound, the “LD50 (voie nasale, rat)” value (rat [5]) was 0,84 mg/l, the “LD50 (voie dermique, lapin)” value (lapin) was 2000 mg/kg de poids vif and the “concentrations minimales bactéricides (CMB)” value ([6]; Eau distillée) was 800 ppm. The “concentrations minimales bactéricides (CMB)” value ([6]; Eau dure 30°F) was 800 ppm, the “concentrations minimales bactéricides (CMB)” value ([7]; Eau distillée) was 800 ppm and the “concentrations minimales bactéricides (CMB)” value ([7]; Eau dure 30°F) was 800 ppm. For the same compound, the “Chute du titre viral (exprimé en Log)” value ([1]; MMPP 1000 ppm) was 2,6 Log, the “Chute du titre viral (exprimé en Log)” value ([1]; MMPP 1500 ppm) was 3,7 Log and the “Equivalence Avox” value ([8]; conditions de saleté) was ≥ 300 ppm. The “Concentration active en monoperoxyphtalate de magnésium (réduction > 10^5 Log)” value [8, 14] was ≥ 5 000 ppm, the “Equivalence Avox” value ([9]; conditions de saleté) was ≥ 450 ppm and the “Concentration active en monoperoxyphtalate de magnésium (réduction > 10^5 Log)” value [9, 14] was ≥ 7 500 ppm. For the same compound, the “Equivalence Avox” value [10] was ≥ 150 ppm, the “Equivalence Avox” value [11] was ≥ 300 ppm and the “Effets toxiques (alimentation de rats de laboratoire pendant 90 jours)” value (rats de laboratoire) was > 620 mg/kg de poids vif. The “concentration à partir de laquelle activité virucide” value [12] was ≥ 1 500 ppm, the “concentration efficace sur les souches testées” value [13] was 7 500 ppm and the “concentration efficace sur les souches testées, en oxygène libre” value ([13]; oxygène libre) was 450 ppm. For the same compound, the “LC50 (7 jours, truite arc en ciel)” value (truite arc en ciel) was 38,5 mg :l.
